Assay results: patent US6638973B2, “Taxane formulations” (FSU Research Foundation, Inc., priority 2000, dated 2003)
Read-outs that look alike come from different tables or passages of the source.

System: HCT116 cells
Assay: In vitro cytotoxicity measured by the cell colony formation assay
Type: cell-based
Conditions: colonies counted after 7 days, read-out: IN VITRO ID 50 (nm) HCT116
Description: (§1) Four hundred cells (HCT116) were plated in 60 mm Petri dishes containing 2.7 mL of medium (modified McCoy's 5a medium containing 10% fetal bovine serum and 100 units/mL penicillin and 100 µg/mL streptomycin). The cells were incubated in a CO2 incubator at 37° C. for 5 h for attachment to the bottom of Petri dishes. The compounds identified in Example 2 were made up fresh in medium at ten times the final concentration, and then 0.3 mL of this stock solution was added to the 2.7 mL of medium in the dish. The cells were then incubated with drugs for 72 h at 37° C. At the end of incubation the drug-containing media were decanted, the dishes were rinsed with 4 mL of Hank's Balance Salt Solution (HBSS), 5 mL of fresh medium was added, and the dishes were returned to the incubator for colony formation. The cell colonies were counted using a colony counter after incubation for 7 days.
as §1, with “Example 7” for “Example 2”
as §1, with “Example 22” for “Example 2”
as §1, with “Example 27” for “Example 2”
Four hundred cells (HCT116) were plated in 60 mm Petri dishes containing 2.7 mL of medium (modified McCoy's 5a medium containing 10% fetal bovine serum and 100 units/mL penicillin and 100 µg/mL streptomycin). The cells were incubated in a CO2 incubator at 37° C. for 5 h for attachment to the bottom of Petri dishes. […]

[1] = HCT116 colony formation, 72 h drug incubation, Example 10, C-10 ester/C-7 hydroxy taxanes
[2] = HCT116 cells, 72 h incubation with drug, ID50 = drug concentration producing 50% inhibition of colony formation
[3] = HCT116 colony formation, 72 h drug incubation, Example 5, C-7 ester/C-10 hydroxy taxanes

CC(=O)O[C@@]12CO[C@@H]1C[C@H](O)[C@@]1(C)C(=O)[C@H](OC(=O)C3CC3)C3=C(C)[C@@H](OC(=O)[C@H](O)[C@@H](NC(=O)c4ccccc4)c4ccco4)C[C@@](O)([C@@H](OC(=O)c4ccccc4)C12)C3(C)C (some centres unmarked) [Compound 0908]
IC50 [1]: < 1 nM

CCNC(=O)O[C@H]1C(=O)[C@@]2(C)C([C@H](OC(=O)c3ccccc3)[C@]3(O)C[C@H](OC(=O)[C@H](O)[C@@H](NC(=O)OC(C)(C)C)c4ccsc4)C(C)=C1C3(C)C)[C@]1(OC(C)=O)CO[C@@H]1C[C@@H]2O (some centres unmarked) [Compound 2622]
IC50 (HCT116 cells, colony formation, 72 h incubation with drug, ID50 = drug concentration producing 50% inhibition of colony formation): < 1 nM

COC(=O)O[C@H]1C[C@H]2OC[C@@]2(OC(C)=O)C2[C@H](OC(=O)c3ccccc3)[C@]3(O)C[C@H](OC(=O)[C@H](O)[C@H](C=C(C)C)NC(=O)OC(C)(C)C)C(C)=C([C@@H](O)C(=O)[C@@]21C)C3(C)C (some centres unmarked) [Compound 4484]
IC50 [2]: < 1 nM

CCCC(=O)OC1C(=O)C2(C)C(O)CC3OCC3(OC(C)=O)C2C(OC(=O)c2ccccc2)C2(O)CC(OC(=O)C(O)C(NC(=O)OC(C)(C)C)C(C)C)C(C)=C1C2(C)C (centres unmarked) [Compound 1031]
IC50 [1]: < 10 nM

CCCC(=O)O[C@H]1C[C@H]2OC[C@@]2(OC(C)=O)C2[C@H](OC(=O)c3ccccc3)[C@]3(O)C[C@H](OC(=O)[C@H](O)[C@@H](NC(=O)OCC(C)C)c4ccco4)C(C)=C([C@@H](O)C(=O)[C@@]21C)C3(C)C (some centres unmarked) [Compound 4616]
IC50 [3]: < 1 nM

CCOC(=O)O[C@H]1C(=O)[C@@]2(C)C([C@H](OC(=O)c3ccccc3)[C@]3(O)C[C@H](OC(=O)[C@H](O)[C@@H](NC(=O)c4ccco4)c4cccs4)C(C)=C1C3(C)C)[C@]1(OC(C)=O)CO[C@@H]1C[C@@H]2O (some centres unmarked) [Compound 3011]
IC50 [2]: < 1 nM

CC(=O)OC12COC1CC(O)C1(C)C(=O)C(OC(=O)c3cccs3)C3=C(C)C(OC(=O)C(O)C(NC(=O)OC(C)(C)C)c4ccccn4)CC(O)(C(OC(=O)c4ccccc4)C21)C3(C)C (centres unmarked) [Compound 1883]
IC50 [1]: < 10 nM

CC(=O)OC12COC1CC(O)C1(C)C(=O)C(OC(=O)c3ccco3)C3=C(C)C(OC(=O)C(O)C(NC(=O)OC(C)(C)C)c4ccc([N+](=O)[O-])cc4)CC(O)(C(OC(=O)c4ccccc4)C21)C3(C)C (centres unmarked) [Compound 2202]
IC50 [1]: < 1 nM

CC(=O)O[C@@]12CO[C@@H]1C[C@H](O)[C@@]1(C)C(=O)[C@H](OC(=O)C3CC3)C3=C(C)[C@@H](OC(=O)[C@H](O)[C@@H](NC(=O)c4ccccc4)c4ccccc4)C[C@@](O)([C@@H](OC(=O)c4ccccc4)C12)C3(C)C (some centres unmarked) [Compound 0937]
IC50 [1]: < 10 nM

C/C=C/C(=O)N[C@@H](c1ccsc1)[C@@H](O)C(=O)O[C@H]1C[C@@]2(O)[C@@H](OC(=O)c3ccccc3)C3[C@](C)(C(=O)[C@H](O)C(=C1C)C2(C)C)[C@@H](OC(=O)OCC)C[C@H]1OC[C@@]31OC(C)=O (some centres unmarked) [Compound 4999]
IC50 [2]: < 1 nM

COC(=O)O[C@H]1C(=O)[C@@]2(C)C([C@H](OC(=O)c3ccccc3)[C@]3(O)C[C@H](OC(=O)[C@H](O)[C@@H](NC(=O)OC(C)(C)C)c4ccc([N+](=O)[O-])cc4)C(C)=C1C3(C)C)[C@]1(OC(C)=O)CO[C@@H]1C[C@@H]2O (some centres unmarked) [Compound 2088]
IC50 [2]: < 1 nM

CCC(C)(C)OC(=O)N[C@@H](c1ccco1)[C@@H](O)C(=O)O[C@H]1C[C@@]2(O)[C@@H](OC(=O)c3ccccc3)C3[C@](C)(C(=O)[C@H](O)C(=C1C)C2(C)C)[C@@H](OC(=O)C(C)C)C[C@H]1OC[C@@]31OC(C)=O (some centres unmarked) [Compound 6252]
IC50 [3]: < 1 nM

COC(=O)O[C@H]1C[C@H]2OC[C@@]2(OC(C)=O)C2[C@H](OC(=O)c3ccccc3)[C@]3(O)C[C@H](OC(=O)[C@H](O)[C@@H](NC(=O)OCC(C)C)c4ccsc4)C(C)=C([C@@H](O)C(=O)[C@@]21C)C3(C)C (some centres unmarked) [Compound 4674]
IC50 [2]: < 1 nM

CC=CC(=O)NC(c1ccoc1)C(O)C(=O)OC1CC2(O)C(OC(=O)c3ccccc3)C3C4(OC(C)=O)COC4CC(O)C3(C)C(=O)C(OC(=O)OCC)C(=C1C)C2(C)C (centres unmarked) [Compound 4959]
IC50 [2]: < 1 nM

C/C=C/C(=O)N[C@@H](c1ccco1)[C@@H](O)C(=O)O[C@H]1C[C@@]2(O)[C@@H](OC(=O)c3ccccc3)C3[C@](C)(C(=O)[C@H](O)C(=C1C)C2(C)C)[C@@H](OC(=O)OCC)C[C@H]1OC[C@@]31OC(C)=O (some centres unmarked) [Compound 4818]
IC50 [2]: < 1 nM

CCCC(=O)N[C@@H](c1ccco1)[C@@H](O)C(=O)O[C@H]1C[C@@]2(O)[C@@H](OC(=O)c3ccccc3)C3[C@](C)(C(=O)[C@H](OC(=O)OCC)C(=C1C)C2(C)C)[C@@H](O)C[C@H]1OC[C@@]31OC(C)=O (some centres unmarked) [Compound 3929]
IC50 [2]: < 1 nM

CCCC(=O)O[C@H]1C(=O)[C@@]2(C)C([C@H](OC(=O)c3ccccc3)[C@]3(O)C[C@H](OC(=O)[C@H](O)[C@@H](NC(=O)OC(C)C)c4ccco4)C(C)=C1C3(C)C)[C@]1(OC(C)=O)CO[C@@H]1C[C@@H]2O (some centres unmarked) [Compound 3417]
IC50 [1]: < 1 nM

CCOC(=O)O[C@H]1C(=O)[C@@]2(C)C([C@H](OC(=O)c3ccccc3)[C@]3(O)C[C@H](OC(=O)[C@H](O)[C@@H](NC(=O)OC(C)(C)C)c4ccccc4)C(C)=C1C3(C)C)[C@]1(OC(C)=O)CO[C@@H]1C[C@@H]2O (some centres unmarked) [Compound 1771]
IC50 [2]: < 10 nM

CCOC(=O)N[C@@H](c1cccs1)[C@@H](O)C(=O)O[C@H]1C[C@@]2(O)[C@@H](OC(=O)c3ccccc3)C3[C@](C)(C(=O)[C@H](OC(=O)C4CC4)C(=C1C)C2(C)C)[C@@H](O)C[C@H]1OC[C@@]31OC(C)=O (some centres unmarked) [Compound 4051]
IC50 [1]: < 1 nM

CCCC(=O)OC1C(=O)C2(C)C(O)CC3OCC3(OC(C)=O)C2C(OC(=O)c2ccccc2)C2(O)CC(OC(=O)C(O)C(NC(=O)OC(C)(C)C)C3CC3)C(C)=C1C2(C)C (centres unmarked) [Compound 1020]
IC50 [1]: < 1 nM

C/C=C/C(=O)N[C@@H](c1ccoc1)[C@@H](O)C(=O)O[C@H]1C[C@@]2(O)[C@@H](OC(=O)c3ccccc3)C3[C@](C)(C(=O)[C@H](O)C(=C1C)C2(C)C)[C@@H](OC(=O)CCC)C[C@H]1OC[C@@]31OC(C)=O (some centres unmarked) [Compound 4939]
IC50 [3]: < 1 nM

CCCC(=O)N[C@@H](c1ccco1)[C@@H](O)C(=O)O[C@H]1C[C@@]2(O)[C@@H](OC(=O)c3ccccc3)C3[C@](C)(C(=O)[C@H](OC(=O)CC)C(=C1C)C2(C)C)[C@@H](O)C[C@H]1OC[C@@]31OC(C)=O (some centres unmarked) [Compound 3219]
IC50 [1]: < 1 nM

CC(=O)OC12COC1CC(O)C1(C)C(=O)C(OC(=O)c3ccco3)C3=C(C)C(OC(=O)C(O)C(NC(=O)OC(C)(C)C)c4ccoc4)CC(O)(C(OC(=O)c4ccccc4)C21)C3(C)C (centres unmarked) [Compound 2159]
IC50 [1]: < 1 nM

CCCC(=O)O[C@H]1C(=O)[C@@]2(C)C([C@H](OC(=O)c3ccccc3)[C@]3(O)C[C@H](OC(=O)[C@H](O)[C@@H](NC(=O)OCC)c4ccco4)C(C)=C1C3(C)C)[C@]1(OC(C)=O)CO[C@@H]1C[C@@H]2O (some centres unmarked) [Compound 3693]
IC50 [1]: < 1 nM

COC(=O)O[C@H]1C[C@H]2OC[C@@]2(OC(C)=O)C2[C@H](OC(=O)c3ccccc3)[C@]3(O)C[C@H](OC(=O)[C@H](O)[C@@H](NC(=O)OCC(C)C)c4ccoc4)C(C)=C([C@@H](O)C(=O)[C@@]21C)C3(C)C (some centres unmarked) [Compound 4584]
IC50 [2]: < 10 nM

COC(=O)O[C@H]1C(=O)[C@@]2(C)C([C@H](OC(=O)c3ccccc3)[C@]3(O)C[C@H](OC(=O)[C@H](O)[C@@H](NC(=O)OC(C)(C)C)c4cccs4)C(C)=C1C3(C)C)[C@]1(OC(C)=O)CO[C@@H]1C[C@@H]2O (some centres unmarked) [Compound 2044]
IC50 [2]: < 1 nM
